Values quoted from earlier work, collected in patent US12569533B2, “Bruising and filler compositions and methods for use” (Alastin Skincare, Inc., priority 2021, dated 2026).

Test system: hyaluronic acid level
Conditions: ex vivo human skin model

**Q.** For `CCCCCCCC(=O)CCc1ccc(O)c(OC)c1` [Hydroxymethoxyphenyl decanone], which “stimulation of dermal hyaluronic acid level versus placebo” value (dermal) is on record?
**A.** 259%

**Q.** And the “stimulation of epidermal hyaluronic acid level versus placebo” value (epidermal)?
**A.** 198%
